Assays:
Format in all cases: cell-based, human
peptide-pulsed T2 cells = assay: IFN-gamma ELISA on expanded CTL lines, HLA-A02 peptides; settings: expanded cells of positive wells, FIG. 3A-D, 3F
Experimental: CTLs were expanded in culture using a similar method as reported by Riddell, et al. (Walter et al., N Engl J Med 333(16): 1038-44, 1995; Riddell et al., Nat Med 2(2): 216-23, 1996 February). A total of 5×10^4 CTLs were resuspended in 25 ml of AIM-V/5% AS with 2 kinds of human B-lymphoblastoid cell lines, inactivated with MMC, in the presence of 40 ng/ml of anti-CD3 monoclonal antibody (Pharmingen). One day after initiating the cultures, 120 IU/ml of IL-2 were added to the cultures. The cultures were fed with fresh AIM-V/5% AS containing 30 IU/ml of IL-2 on days 5, 8 and 11.
(§1) To examine the specific CTL activity, IFN-gamma ELISPOT assay and IFN-gamma ELISA were performed. Briefly, peptide-pulsed A24-LCL, T2 cell (1×10^4/well) or the cells endogenously expressing Foxp3 and HLA molecule was prepared as a stimulator cells. Cultured CTL lines in 48 wells were used as a responder cells. IFN-gamma ELISPOT assay and IFN-gamma ELISA were performed under manufacture procedure.
These cells in the positive wells were expanded and performed IFN-gamma ELISA assay.

[1] = system: 293T that transfected both Foxp3 and HLA-A02; assay: Specific CTL activity against target cells expressing Foxp3 and HLA-A02
Experimental: as §1
(§2) The established CTL clone raised against these peptides were examined for their ability to recognize the target cells endogenously expressing Foxp3 and HLA-A*24 or 02. Specific CTL activity against 293T transfected both full length of Foxp3 gene and HLA-A*24 or 02 molecule, which is specific model for the target cells endogenously express Foxp3 and HLA-A*24 or 02, was tested using the CTL lines raised by Foxp3-A02-9-390 (SEQ ID NO: 15) and Foxp3-A02-9-252 (SEQ ID NO: 17) as effector cells. […] Furthermore, these peptides were epitope peptides, which can utilize vaccine targeting Foxp3 expressed T-regs.

[2] = system: 293T that transfected both Foxp3 and HLA-A24; assay: Specific CTL activity against target cells expressing Foxp3 and HLA-A24
Experimental: as §1, §2

peptide pulsed T2 cells = assay: IFN-gamma ELISPOT: CTL line induced with Foxp3-9-252-WT against T2 cells pulsed with substituted peptide; settings: FIG. 7A
Experimental: IFN-gamma ELISPOT assay was performed using CTL line induced with Foxp3-9-252-WT peptide as responder cells and T2 cells pulsed Foxp3-9-252-WT or Foxp3-9-252-9V peptide as stimulator cells, respectively. T2 cells without peptide pulse were prepared as control. […] IFN-gamma ELISA assay was performed using CTL line induced with Foxp3-9-252-WT peptide as responder cells (1×10^5 cells/well) and Foxp3-9-252-WT (-solid circle-), Foxp3-9-252-9V (-open circle-) or HIV-A02 (-solid triangle-) peptide pulsed T2 cells as stimulator cells (1×10^4 cells/well). Peptide pulse of stimulator cells was conducted at 37 degree Celsius for 2 hours in each kind of peptide and peptide concentration.
as §1
And then the present inventers examined whether peptide-pulsed stimulator cells using these substitutions were recognized by CTLs generated with Foxp3-9-252-WT peptide.

[3] = system: peptide-pulsed A24LCL cells or T2 cells; assay: In vitro CTL induction by peptide-loaded dendritic cells (summary statements)
Text: Confirmation of CTL inducibility can be accomplished by inducing antigen-presenting cells carrying human MHC antigens (for example, B-lymphocytes, macrophages, and dendritic cells), or more specifically dendritic cells derived from human peripheral blood mononuclear leukocytes, and after stimulation with the peptides, mixing with CD8-positive cells, and then measuring the IFN-gamma produced and released by CTL against the target cells. As the reaction system, transgenic animals that have been produced to express a human HLA antigen (for example, those described in BenMohamed L, Krishnan R, Longmate J, Auge C, Low L, Primus J, Diamond D J, Hum Immunol 61(8): 764-79, 2000 August, Related Articles, Books, Linkout Induction of CTL response by a minimal epitope vaccine in HLA A*0201/DR1 transgenic mice: dependence on HLA class II restricted T(H) response) can be used. For example, the target cells can be radiolabeled with ^51Cr and such, and cytotoxic activity can be calculated from radioactivity released from the target cells. Alternatively, it can be examined by measuring IFN-gamma produced and released by CTL in the presence of antigen-presenting cells that carry immobilized peptides, and visualizing the inhibition zone on the media using anti-IFN-gamma monoclonal antibodies.
Monocyte-derived dendritic cells (DCs) were used as antigen-presenting cells (APCs) to induce CTL responses against peptides presented on HLA. DCs were generated in vitro as described elsewhere (Horiguchi S. et al. Cancer Res. 59:2950-6). Specifically, peripheral blood mononuclear cells (PBMCs) isolated from normal volunteer (HLA-A*2402 and/or HLA-A*0201) with Ficoll-Plaque (Pharmacia) solution were separated by adherence to plastic tissue culture dish (Becton Dickinson) so as to enrich them for the monocyte fraction. The monocyte-enriched population was cultured in the presence of 1000 U/ml of GM-CSF (R&D System) and 1000 U/ml of IL-4 (R&D System) in AIM-V medium (Invitrogen) containing 2% heat-inactivated autologous serum (AS). After 7 days in the culture, the cytokine-generated DCs were pulsed with 20 mcg/ml of the synthesized peptides in the presence of 3 mcg/ml of beta2-microglobulin for 4 hrs at 20 degrees C. in AIM-V medium. These peptide-pulsed DCs were then inactivated with mitomycin C (MMC) (30 mcg/ml for 30 mins) and mixed at a 1:20 ratio with autologous CD8+ T cells, obtained by positive selection with CD8 Positive Isolation Kit (Dynal). These cultures were set up in 48-well plates (Corning); each well contained 1.5×10^4 peptide-pulsed DCs, 3×10^5 CD8+ T cells and 10 ng/ml of IL-7 (R&D System) in 0.5 ml of AIM-V/2% AS. Three days later, these cultures were supplemented with IL-2 (CHIRON) to a final concentration of 20 IU/ml. On day 7 and 14, the T cells were further restimulated with the peptide-pulsed autologous DCs. The DCs were prepared each time through the same procedure described above. CTL activity was tested against peptide-pulsed A24LCL cells or T2 cells after the 3rd round of peptide stimulation on day 21.
as §1

Sequence: KLSAMQAHL (peptide vaccine) [SEQ ID NO 17]
- IFN-gamma production of CTL lines stimulated with peptide, compared with the control (peptide-pulsed T2 cells): potent IFN-gamma production
- specific CTL activity of CTL lines raised by peptide ([1]; against 293T transfected with both Foxp3 and HLA-A02, FIG. 4A/4B): high specific CTL activity
- specific CTL activity against controls ([1]; controls of FIG. 4A/4B): did not show significant specific CTL activity
- specific CTL activity of CTL lines raised by peptide ([2]; against 293T transfected with both Foxp3 and HLA-A24, FIG. 4C): high specific CTL activity
- specific CTL activity against controls ([2]; controls of FIG. 4C): did not show significant specific CTL activity
- IFN-gamma production of Foxp3-9-252-WT induced CTLs against peptide pulsed T2 cells (peptide pulsed T2 cells): produced IFN-gamma
- specific CTL activity ([3]; against peptide pulsed target cells): significant and specific CTL activity
- establishment of CTLs ([3]; in vitro stimulation of T-cells by DCs loaded with peptide): CTLs were successfully established

Source: patent publication US8563516B2, “Foxp3 peptide vaccine” (OncoTherapy Science, Inc., priority 2007, dated 2013)
